# ChEMBL document CHEMBL4368853 (Medchemcomm, 2018)
# pEC50, pIC50, pKd, pKi: −log10 of the molar value.
# Key:
# [1] = target: T1, Bromodomain-containing protein 4 (Homo sapiens, UniProt O60885); assay: Inhibition of acetylated biotin-labelled RHGSGSK binding to N-terminal His6-tagged BRD4 bromodomain 1 (67 to 152 residues) (unknown origin) expressed in Escherichia coli after 1 hr by TR-FRET assay
# [2] = target: T1, Bromodomain-containing protein 4; assay: Inhibition of acetylated biotin-labelled RHGSGSK binding to BRD4 bromodomain 2 (unknown origin) after 1 hr by TR-FRET assay
# [3] = target: T1, Bromodomain-containing protein 4
# Description: Inhibition of biotinylated Acetyl-Histone H4 (Lys5, 8, 12, 16) peptide binding to GST-tagged BRD4 bromodomain 1 (44 to 168 residues) (unknown origin) after 30 mins by Alphascreen method
# [4] = target: T1, Bromodomain-containing protein 4; assay: Inhibition of biotin-labelled histone peptide binding to His-tagged BRD4 (unknown origin) expressed in Escherichia coli after 30 mins by TR-FRET assay
# MX1 [5] = assay: Antiproliferative activity against human MX1 cells after 72 hrs by CellTiter-Glo assay; format: functional, cell-based; settings: MX1, 72 h
# [6] = target: T1, Bromodomain-containing protein 4; assay: Inhibition of His-tagged BRD4 bromodomain 1 (K57 to E168 residues) (unknown origin) by Alexa-647 conjugated probe based TR-FRET assay; format: single protein
# [7] = target: T1, Bromodomain-containing protein 4; assay: Inhibition of His-tagged BRD4 bromodomain 2 (E352 to M457 residues) (unknown origin) by Alexa-647 conjugated probe based TR-FRET assay; format: single protein
# OPM-2 [8] = assay: Antitumor activity against human OPM2 cells xenografted in SCID Beige mouse assessed as tumor growth inhibition at 2.5 mg/kg, po administered once daily for 21 days relative to control; format: functional; settings: OPM-2, po, 504 h, read-out: TGI
# MV4-11 [9] = assay: Antiproliferative activity against human MV4-11 cells; format: functional, cell-based
# [10] = target: T1, Bromodomain-containing protein 4; assay: Inhibition of biotin-labelled tetra-acetylated histone peptide binding to recombinant human N-terminal His6-tagged BRD4 bromodomain 1 (1 to 477 residues) (unknown origin) expressed in Escherichia coli after 1 hr by TR-FRET assay
# [11] = Antiproliferative activity against human CLL cells assessed as inhibition of CpG-induced cell proliferation treated for 4 hrs followed by compound washout for 44 to 48 hrs by MTS assay; format: functional, cell-based
# MDA-MB-453 [12] = assay: Antiproliferative activity against human MDA-MB-453 cells; format: functional, cell-based
# MDA-MB-453 [13] = assay: Antitumor activity against human MDA-MB-453 cells xenografted in SCID mouse assessed as tumor growth inhibition at 5 mg/kg, iv; settings: MDA-MB-453, iv, read-out: TGI
# OPM-2 [14] = assay: Antitumor activity against human OPM2 cells xenografted in SCID Beige mouse assessed as tumor growth inhibition at 5 mg/kg, po administered once daily for 21 days relative to control; format: functional; settings: OPM-2, po, 504 h, read-out: TGI
# [15] = target: T1, Bromodomain-containing protein 4; assay: Binding affinity to BRD4 bromodomain 1 (unknown origin) by isothermal titration calorimetry
# HL-60 = assay: Growth inhibition of human HL60 cells at 10 uM after 48 hrs by sulforhodamine B assay; format: functional; settings: HL-60, 48 h, read-out: GI
# [16] = target: T1, Bromodomain-containing protein 4; assay: Inhibition of recombinant human N-terminal His-tagged/C-terminal FLAG-tagged BRD4 bromodomain 1 (44 to 168 residues) expressed in Escherichia coli using histone peptide as substrate preincubated for 15 mins followed by substrate addition and measured after 60 mins
# MV4-11 [17] = assay: Antiproliferative activity against human MV4-11 cells after 72 hrs by CellTiter-Glo assay; format: functional, cell-based; settings: MV4-11, 72 h
# [18] = target: T1, Bromodomain-containing protein 4; assay: Inhibition of His6-tagged BRD4 (1 to 477 residues) (unknown origin) after 1 hr by Alexa fluor 488-conjugated probe based fluorescence anisotropy
# [19] = target: T1, Bromodomain-containing protein 4; assay: Inhibition of biotinylated histone H4 peptide binding to BRD4 bromodomain 1 (44 to 168 residues) (unknown origin) after 60 mins by Alphascreen method
# [20] = target: T1, Bromodomain-containing protein 4; assay: Inhibition of biotinylated histone H4 peptide binding to BRD4 bromodomain 2 (333 to 460 residues) (unknown origin) after 60 mins by Alphascreen method
# [21] = Induction of apoptosis in human Mino cells after 48 hrs by Annexin-V/propidium iodide staining based assay; format: functional, cell-based
# Z-138 = assay: Induction of apoptosis in human ibrutinib-resistant Z138 cells after 48 hrs by Annexin-V/propidium iodide staining based assay; format: functional, cell-based; settings: Z-138, 48 h
# VCaP = assay: Antitumor activity against human VCaP cells xenografted in mouse assessed as tumor growth inhibition at 30 mg/kg, sc administered once every 3 days for 15 days; settings: 360 h, read-out: TGI
# [22] = target: Bromodomain-containing protein 4 (Homo sapiens, UniProt O60885, Y97A); assay: Inhibition of recombinant human N-terminal His6-tagged BRD4 Y97A mutant (1 to 477 residues) expressed in Escherichia coli after 30 mins by Alexa Fluor647 conjugated probe based TR-FRET assay
# CHP-212 = assay: Antitumor activity against human CHP212 cells xenografted in Crl:CD-1-Foxn1 nude mouse assessed as tumor growth inhibition at 15 mg/kg, po administered once daily for 42 days relative to control; format: functional; settings: CHP-212, po, 1008 h, read-out: TGI
# [23] = Oral bioavailability in dog; format: ADME, organism-based, Canis lupus familiaris; settings: in vivo
# [24] = Oral bioavailability in monkey; format: ADME, organism-based, Macaca mulatta; settings: rhesus monkey, in vivo
# [25] = target: T1, Bromodomain-containing protein 4; assay: Inhibition of acetyl-histone H4 peptide binding to His6-tagged BRD4 (1 to 477 residues) (unknown origin) after 35 mins by TR-FRET assay
# [26] = target: T1, Bromodomain-containing protein 4; assay: Inhibition of biotinylated Acetyl-Histone H4 (Lys5, 8, […], […]) peptide binding to GST-tagged BRD4 bromodomain 2 (333 to 460 residues) (unknown origin) after 30 mins by Alphascreen method
# MX1 [27] = assay: Antiproliferative activity against human MX1 cells; format: functional, cell-based
# [28] = target: T1, Bromodomain-containing protein 4; assay: Inhibition of BRD4 bromodomain 1 (unknown origin)
# [29] = target: T1, Bromodomain-containing protein 4; assay: Inhibition of BRD4 bromodomain 2 (unknown origin)
# MOLM-13 [30] = assay: Antiproliferative activity against human MOLM13 cells; format: functional, cell-based
# [31] = Oral bioavailability in rat; format: ADME, organism-based; settings: in vivo
# MV4-11 [32] = assay: Antitumor activity against human MV4-11 cells xenografted in po dosed mouse assessed as tumor regression administered once daily relative to control; format: functional
# [33] = target: T1, Bromodomain-containing protein 4; assay: Binding affinity to human partial length BRD4 bromodomain 1 long isoform (N44 to E168 residues) expressed in bacterial expression system by BROMOscan assay
# [34] = target: T1, Bromodomain-containing protein 4; assay: Inhibition of BRD4 in human MM1S cells assessed as down regulation of c-Myc expression after 1 hr by Western blot analysis
# [35] = target: T1, Bromodomain-containing protein 4; assay: Inhibition of acetylated biotin-labelled RHGSGSK binding to N-terminal His6-tagged BRD4 bromodomain 1 (44 to 168 residues) (unknown origin) expressed in Escherichia coli after 1 hr by TR-FRET assay
# MOLM-13 [36] = assay: Antiproliferative activity against human MOLM13 cells after 96 hrs by alamar blue assay; format: functional, cell-based; settings: MOLM-13, 96 h
smiles,measurement,setting,value
C[C@@H]1C(=O)N(C)c2ccc(-c3ccc(Nc4cccc(S(=O)(=O)N(C)C)c4)cc3)nc2N1C1CCN(C)CC1,pIC50,[1],7.70
same,pIC50,[2],7.37
CCN1C(=O)C(C)(C)c2cc3nc(-c4cc(C)c(=O)n(C)c4)n([C@@H](C)c4ccccc4)c3cc21,pIC50,[3],8.89
COc1ccc2c(ncc3nc(C4CCC(F)(F)CC4)n([C@H](C)COC(F)F)c32)c1-c1c(C)noc1C,pIC50,[4],7.68 to 8.00
Cn1cc2c3c(c[nH]c(=O)c31)CN(c1ccccn1)c1ccc(CS(C)(=O)=O)cc1-2,pEC50,MX1 [5],7.80
same,pIC50,[6],8.96
same,pIC50,[7],8.68
same,inhibition in vivo at 2.5 mg/kg,OPM-2 [8],79%
Cc1noc(C)c1-c1ccc2c(c1)C(C1CCCC1)(N1CCC[C@H](N)C1)C(=O)N2 (stereo not given in full),pIC50,MV4-11 [9],7.47
same,pIC50,[10],8.10
Cc1noc(C)c1-c1cnc2c(-c3ccc(C(=O)O)cc3)cn([C@@H](C)c3ccccn3)c2c1 [PLX-51107],pIC50,[11],5.00 to 6.81
CCn1nc(C2CC2)cc1Nc1nc(C(=O)NCCCOCCOCCOCCCNc2cccc3c2CN(C2CCC(=O)NC2=O)C3=O)nc2[nH]c3cc(-c4c(C)noc4C)c(OC)cc3c12 (stereo not given),pIC50,MDA-MB-453 [12],> 8.00
same,IC90,MDA-MB-453 [12],< 0.1 µM
same,inhibition in vivo at 5 mg/kg,MDA-MB-453 [13],85%
Cn1cc2c3c(c[nH]c(=O)c31)CN(c1ccc(F)cc1F)c1ccc(CS(C)(=O)=O)cc1-2,pEC50,MX1 [5],7.80
same,pIC50,[6],8.74
same,pIC50,[7],8.70
same,inhibition in vivo at 5 mg/kg,OPM-2 [14],81%
CCc1c(C(=O)Nc2cc(S(=O)(=O)N(CC)CC)ccc2O)[nH]c(C)c1C(C)=O,pKd,[15],6.63
same,inhibition of growth at 10 µM,HL-60,65%
CC[C@@H]1C(=O)Nc2ccc(-c3c(C)noc3C)cc2N1Cc1ccccc1,pIC50,[16],7.15
same,pIC50,MV4-11 [17],6.59
COc1cnc2c(ncc3[nH]c(=O)n(Cc4ccccc4)c32)c1-c1c(C)noc1C,pIC50,[18],6.50
CC(=O)N1c2ccc(-c3ccc(-c4cnn(C5CC5)c4)c(OC[C@H]4CC4(F)F)c3)cc2CC[C@H]1C,pIC50,[19],> 7.00
same,pIC50,[20],> 7.30
COc1cnc2c(ncc3[nH]c(=O)n(Cc4ccccc4OC(F)(F)F)c32)c1-c1c(C)noc1C,pIC50,[18],6.80
Cc1ncsc1-c1ccc([C@H](C)NC(=O)[C@@H]2C[C@@H](O)CN2C(=O)[C@@H](NC(=O)COCCCOCCNC(=O)C[C@@H]2N=C(c3ccc(Cl)cc3)c3c(sc(C)c3C)-n3c(C)nnc32)C(C)(C)C)cc1,pIC50,[21],7.77
same,pIC50,Z-138,6.85
same,inhibition in vivo at 30 mg/kg,VCaP,60%
CC(=O)N1c2ccc(-c3ccc(C#N)cc3)cc2[C@H](Nc2ncccc2F)[C@@H](C)[C@@H]1C1CC1,pIC50,[22],> 7.00
CC(=O)N1c2ccc(-c3ccc(C(=O)O)cc3)cc2[C@H](Nc2ccc(Cl)cc2)C[C@@H]1C,inhibition in vivo at 15 mg/kg,CHP-212,82%
same,bioavailability,[23],80%
same,bioavailability,[24],100%
Cc1nn(C2CC2)c2c1[C@@H](c1ccc(Cl)cc1)N(c1cc(C)c3nnc(C)n3n1)C2=O,pIC50,[25],> 7.96
CCS(=O)(=O)Nc1ccc(Oc2ccc(F)cc2F)c(-c2cn(C)c(=O)c3[nH]c(C#CCN(C)C)cc23)c1,pKi,[3],8.89
same,pKi,[26],8.48
same,pEC50,MX1 [27],8.03
COc1ccc2c([nH]c3nc(C)nc(-c4ccnc5ccccc45)c32)c1-c1c(C)noc1C,pKi,[28],8.09
same,pKi,[29],8.85
same,pIC50,MV4-11 [9],7.59
same,pIC50,MOLM-13 [30],7.28
same,bioavailability,[31],93%
same,Activity,MV4-11 [32],>80%
CC(=O)N1CC(n2cc(C3CC3)c3c2C(c2ccc(Cl)cc2)N(c2cc(C)c4nnn(C)c4n2)C3=O)C1 (stereo not given),pIC50,[25],> 7.96
COc1ccc2c(ncc3nc(C4CCOCC4)n([C@H](C)COC(F)F)c32)c1-c1c(C)noc1C,pIC50,[4],7.68 to 8.00
Cc1sc2c(c1C)C(c1ccc(Cl)cc1)=N[C@@H](CC(=O)OCCCCCCO)c1nnc(C)n1-2,pIC50,[33],9.37
COc1ccc2c(ncc3nc(N4CCOCC4)n([C@H](C)COC(F)F)c32)c1-c1c(C)noc1C,pIC50,[4],8.00
COc1nnc2ccc(N3CCC(c4ccc(OCCN5CCN(C)C(=O)[C@H]5C)cc4)CC3)nn12 [AZD-5153],pIC50,[34],8.27
Cc1nnc(C[C@@H]2N=C(c3ccc(Cl)cc3)c3ccccc3-n3c(C)nnc32)o1,pIC50,[35],7.70
same,pEC50,MOLM-13 [36],6.85
